Experimental findings from patent US20250206756A1, “INHIBITORS” (Pfizer Inc., priority 2023, published 2025) are described below.

The test deals with SZ95 human sebocytes. The test is described as follows: High content imaging assay to quantify lipid droplets in a human sebocyte cell line. The format is cell-based. The settings on record: 48 hours incubation, Bodipy neutral lipid staining, read-out: Human SZ95 Sebocyte Lipid Imaging Assay / Percent Inhibition of Lipid Droplets IC50. Here is the method: High content imaging assay to quantify lipid droplets in a human sebocyte cell line One week prior to cell dosing, SZ95 human sebocytes were thawed and grown in a T175 tissue culture flask containing 50 mL media. Media was prepared as follows: Sebomed basal medium with stable glutamine and without phenol red (Sigma; Catalog No. F8205), 10% heat inactivated fetal bovine serum (Invitrogen; Cat. No. 10082), 5 ng/mL recombinant human epidermal growth factor (Gibco; Catalog No. PHG0311), 1 mM calcium chloride (Fisher Scientific; Catalog No. BP9742), and 1X penicillin/streptomycin (Thermo Fisher; Catalog No. 15140-122). Cells were cultured at 37° C. and the media was replaced every 48-72 hours until start of assay. Compounds were delivered as a 75 nL spot by the Echo 550 (Labcyte) into 384-well assay plates (PerkinElmer; Catalog No. 6057308) with final compound concentrations of […], 0.003, 0.001, 0.0003, and 0.0001 μM. The final DMSO concentration was 0.1%. SZ-95 cells were washed with Dulbecco's phosphate buffered saline (DPBS, Lonza; Catalog No. 17-512Q) and then detached with 0.25% Trypsin-EDTA (Gibco; Catalog No. 25200056). Growth media (25 mL) was added to the flask and the cells were further diluted to 1.33×10∧5 cells/mL. SZ-95 cells were plated at a density of 10,000 cells/well in 75 μL and incubated for 48 hours at 37° C. Using the Biomek FX (Beckman), 25 μL of media was removed and the cells were fixed by adding 18.7 μL of 16% paraformaldehyde (Electron Microscopy Sciences; Cat. No. 50980488). After a 30 minute incubation at room temperature, the plates were washed twice with 75pi DPBS. Following the second wash, all remaining DPBS was removed. Staining solution was prepared with 2 μM Bodipy (Invitrogen; Cat. No D3922, diluted 1:1000) and Hoechst (Life Technologies; Cat. No. H3570, diluted 1:2000) in DPBS. Using the Biomek FX, 30 μL of the staining solution was added to each well. The cells were incubated for 20 minutes at room temperature, then washed once with 75 μL DPBS. Finally, 30 μL of DPBS was added to each well and the plates were sealed with light blocking film. The plates were read on an Opera Phenix (PerkinElmer) for high content imaging. Nuclei were detected by Hoechst staining and lipid droplets by Bodipy, which stains neutral lipids. […] The percent (%) effect at each concentration of compound is calculated by Genedata Screener analysis program using a four-parameter logistic dose response equation and is based on and relative to the amount of lipid droplets in the positive and negative control wells contained within each assay plate to determine the 50% inhibition concentration (IC50).

Molecules are shown by their SMILES. Some results are limits rather than exact numbers.

On to `Cc1nn(C)c2c(O)cc(C(=O)N3CCC4(CC3)CC(=O)c3nc(C(C)(C)CO)sc3C4)cc12` [Example 8], for which the IC50 was above 0.145 nM. Turning to `CCOc1cc(C(=O)N2CCC3(CC2)CC(=O)c2nc(C(C)(C)C)sc2C3)cc2c(C)n[nH]c12` [Example 1, 2-(tert-butyl)-1′-(7-ethoxy-3-methyl-1H-Indazole-5-carbonyl)-5H-spiro[benzo[d]thiazole-6,4′-piperidin]-4(7H)-one], the IC50 worked out at 10 nM.

For `CCOc1cc(C(=O)N2CCC3(CC2)Cc2sc(C(C)(C)C)nc2[C@H](O)C3)cc2c(C)nn(C)c12` [Example 4a, (R)-(2-(tert-butyl)-4-hydroxy-4,7-dihydro-5H-spiro[benzo[d]thiazole-6,4′-piperidin]-1′-yl)(7-ethoxy-1,3-dimethyl-1H-indazol-5-yl)methanone], the IC50 is 122 nM. In the case of `Cc1nn(C)c2c(O)cc(C(=O)N3CCC4(CC3)CC(=O)c3nc(C(C)(C)C)sc3C4)cc12` [Example 2], the IC50 amounted to 11 nM. Take `CCOc1cc(C(=O)N2CCC3(CC2)CC(=O)c2nc(C(C)(C)CO)sc2C3)cc2c(C)nn(C)c12` [Example 3, 1′-(7-ethoxy-1,3-dimethyl-1H-Indazole-5-carbonyl)-2-(1-hydroxy-2-methylpropan-2-yl)-5H-spiro[benzo[d]thiazole-6,4′-piperidin]-4(7H)-one]: the IC50 came to 16 nM.

As for `CCOc1cc(C(=O)N2CCC3(CC2)Cc2sc(C(C)(C)C)nc2C(O)C3)cc2c(C)nn(C)c12` (racemic) [Example 4, rac-(R)-(2-(tert-butyl)-4-hydroxy-4,7-dihydro-5H-spiro[benzo[d]thiazole-6,4′-piperidin]-1′-yl)(7-ethoxy-1,3-dimethyl-1H-indazol-5-yl)methanone], the IC50 stood at 20 nM.

For `CCOc1cc(C(=O)N2CCC3(CC2)Cc2sc(C(C)(C)C)nc2[C@@H](O)C3)cc2c(C)nn(C)c12` [Example 4b], the IC50 is 7 nM.
